≈ marks a conversion by molar mass, not a printed value.
System: Histophilus somni
Test: minimum inhibitory concentration (MIC)
Procedure: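 Broth microdilution MIC (Sensititre BOPO7F bovine plate, CLSI methods) of 19 antimicrobials against field isolates of P. multocida, M. haemolytica, H. somni (deep nasopharyngeal swabs) and E. coli, Enterococcus spp. (rectal swabs) from weaned dairy heifers. Incubation 16-24 h at 35 C. MIC is the lowest concentration preventing visible growth. Values with <= or > lie at the tested range limits. Trimethoprim-sulfamethoxazole is given as the trimethoprim component of a 1:19 mixture.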

CCCNC[C@]1(O)[C@H](C)O[C@@H](O[C@H]2[C@H](C)[C@@H](O[C@@H]3O[C@H](C)C[C@H](N(C)C)[C@H]3O)[C@](C)(O)C[C@@H](C)CN[C@H](C)[C@@H](O)[C@](C)(O)[C@@H](CC)OC(=O)[C@@H]2C)C[C@@]1(C)OC [Tulathromycin]
Conditions	minimum inhibitory concentration [µg/mL]
isolate (source animal id): 3	≤ 8
isolate (source animal id): 4	≤ 8
isolate (source animal id): 7	≤ 8
isolate (source animal id): 14	≤ 8
isolate (source animal id): 15	≤ 8
isolate (source animal id): 17	≤ 8
isolate (source animal id): 18	≤ 8
isolate (source animal id): 20	≤ 8
isolate (source animal id): 23	≤ 8
isolate (source animal id): 45	≤ 8
isolate (source animal id): 53	≤ 8
isolate (source animal id): 83	≤ 8
isolate (source animal id): 88	≤ 8
isolate (source animal id): 92	16 (≈ 19.8 µM)
isolate (source animal id): 93	≤ 8
isolate (source animal id): 99	≤ 8
isolate (source animal id): 100	16 (≈ 19.8 µM)
isolate (source animal id): 105	≤ 8
isolate (source animal id): 107	≤ 8
isolate (source animal id): 108	≤ 8
isolate (source animal id): 109	≤ 8
isolate (source animal id): 110	16 (≈ 19.8 µM)
isolate (source animal id): 117	≤ 8
isolate (source animal id): 121	≤ 8
isolate (source animal id): 123	≤ 8
isolate (source animal id): 124	≤ 8
isolate (source animal id): 127	≤ 8
isolate (source animal id): 128	≤ 8
isolate (source animal id): 130	16 (≈ 19.8 µM)
isolate (source animal id): 132	≤ 8
isolate (source animal id): 135	≤ 8
isolate (source animal id): 140	≤ 8
isolate (source animal id): 141	≤ 8
isolate (source animal id): 142	> 64
isolate (source animal id): 144	≤ 8
isolate (source animal id): 146	16 (≈ 19.8 µM)
isolate (source animal id): 147	> 64
isolate (source animal id): 151	≤ 8
isolate (source animal id): 153	16 (≈ 19.8 µM)
isolate (source animal id): 154	> 64
isolate (source animal id): 156	> 64
isolate (source animal id): 157	16 (≈ 19.8 µM)
isolate (source animal id): 176	≤ 8
isolate (source animal id): 183	≤ 8
isolate (source animal id): 186	≤ 8
isolate (source animal id): 196	≤ 8
isolate (source animal id): 198	≤ 8
isolate (source animal id): 200	16 (≈ 19.8 µM)
isolate (source animal id): 206	≤ 8
isolate (source animal id): 208	≤ 8
isolate (source animal id): 210	≤ 8
isolate (source animal id): 212	≤ 8
isolate (source animal id): 215	≤ 8
isolate (source animal id): 216	16 (≈ 19.8 µM)
isolate (source animal id): 218	≤ 8
isolate (source animal id): 219	≤ 8
isolate (source animal id): 224	≤ 8
isolate (source animal id): 228	≤ 8
isolate (source animal id): 230	≤ 8
isolate (source animal id): 233	≤ 8
isolate (source animal id): 238	≤ 8
isolate (source animal id): 239	≤ 8
isolate (source animal id): 241	≤ 8
isolate (source animal id): 242	≤ 8
isolate (source animal id): 243	≤ 8
isolate (source animal id): 245	≤ 8
isolate (source animal id): 246	≤ 8
isolate (source animal id): 247	≤ 8
isolate (source animal id): 248	≤ 8
isolate (source animal id): 250	≤ 8
isolate (source animal id): 251	≤ 8
isolate (source animal id): 252	≤ 8
isolate (source animal id): 254	≤ 8
isolate (source animal id): 258	≤ 8
isolate (source animal id): 259	≤ 8
isolate (source animal id): 262	≤ 8
isolate (source animal id): 264	≤ 8
isolate (source animal id): 265	≤ 8
isolate (source animal id): 266	≤ 8
isolate (source animal id): 267	≤ 8
isolate (source animal id): 269	≤ 8
isolate (source animal id): 271	≤ 8
isolate (source animal id): 272	≤ 8
isolate (source animal id): 274	≤ 8
isolate (source animal id): 276	≤ 8
isolate (source animal id): 278	≤ 8
isolate (source animal id): 280	≤ 8
isolate (source animal id): 281	≤ 8
isolate (source animal id): 283	≤ 8
isolate (source animal id): 288	≤ 8
isolate (source animal id): 291	≤ 8
isolate (source animal id): 292	≤ 8
isolate (source animal id): 296	≤ 8
isolate (source animal id): 306	≤ 8
isolate (source animal id): 336	16 (≈ 19.8 µM)
isolate (source animal id): 337	16 (≈ 19.8 µM)
isolate (source animal id): 341	≤ 8

CC1(C)S[C@@H]2[C@H](NC(=O)Cc3ccccc3)C(=O)N2[C@H]1C(=O)O [Penicillin]
Conditions	minimum inhibitory concentration [µg/mL]
isolate (source animal id): 3	≤ 0.12
isolate (source animal id): 4	≤ 0.12
isolate (source animal id): 7	≤ 0.12
isolate (source animal id): 14	≤ 0.12
isolate (source animal id): 15	0.25 (≈ 0.748 µM)
isolate (source animal id): 17	≤ 0.12
isolate (source animal id): 18	≤ 0.12
isolate (source animal id): 20	≤ 0.12
isolate (source animal id): 23	≤ 0.12
isolate (source animal id): 45	≤ 0.12
isolate (source animal id): 53	≤ 0.12
isolate (source animal id): 83	≤ 0.12
isolate (source animal id): 88	≤ 0.12
isolate (source animal id): 92	≤ 0.12
isolate (source animal id): 93	≤ 0.12
isolate (source animal id): 99	≤ 0.12
isolate (source animal id): 100	≤ 0.12
isolate (source animal id): 105	≤ 0.12
isolate (source animal id): 107	≤ 0.12
isolate (source animal id): 108	≤ 0.12
isolate (source animal id): 109	≤ 0.12
isolate (source animal id): 110	≤ 0.12
isolate (source animal id): 117	≤ 0.12
isolate (source animal id): 121	≤ 0.12
isolate (source animal id): 123	≤ 0.12
isolate (source animal id): 124	≤ 0.12
isolate (source animal id): 127	≤ 0.12
isolate (source animal id): 128	≤ 0.12
isolate (source animal id): 130	≤ 0.12
isolate (source animal id): 132	≤ 0.12
isolate (source animal id): 135	≤ 0.12
isolate (source animal id): 140	≤ 0.12
isolate (source animal id): 141	≤ 0.12
isolate (source animal id): 142	≤ 0.12
isolate (source animal id): 144	≤ 0.12
isolate (source animal id): 146	≤ 0.12
isolate (source animal id): 147	≤ 0.12
isolate (source animal id): 151	≤ 0.12
isolate (source animal id): 153	≤ 0.12
isolate (source animal id): 154	≤ 0.12
isolate (source animal id): 156	≤ 0.12
isolate (source animal id): 157	≤ 0.12
isolate (source animal id): 176	≤ 0.12
isolate (source animal id): 183	≤ 0.12
isolate (source animal id): 186	≤ 0.12
isolate (source animal id): 196	≤ 0.12
isolate (source animal id): 198	≤ 0.12
isolate (source animal id): 200	≤ 0.12
isolate (source animal id): 206	≤ 0.12
isolate (source animal id): 208	≤ 0.12
isolate (source animal id): 210	≤ 0.12
isolate (source animal id): 212	≤ 0.12
isolate (source animal id): 215	≤ 0.12
isolate (source animal id): 216	≤ 0.12
isolate (source animal id): 218	≤ 0.12
isolate (source animal id): 219	≤ 0.12
isolate (source animal id): 224	≤ 0.12
isolate (source animal id): 228	≤ 0.12
isolate (source animal id): 230	≤ 0.12
isolate (source animal id): 233	≤ 0.12
isolate (source animal id): 238	≤ 0.12
isolate (source animal id): 239	≤ 0.12
isolate (source animal id): 241	≤ 0.12
isolate (source animal id): 242	≤ 0.12
isolate (source animal id): 243	≤ 0.12
isolate (source animal id): 245	0.25 (≈ 0.748 µM)
isolate (source animal id): 246	≤ 0.12
isolate (source animal id): 247	≤ 0.12
isolate (source animal id): 248	≤ 0.12
isolate (source animal id): 250	≤ 0.12
isolate (source animal id): 251	≤ 0.12
isolate (source animal id): 252	≤ 0.12
isolate (source animal id): 254	0.25 (≈ 0.748 µM)
isolate (source animal id): 258	≤ 0.12
isolate (source animal id): 259	≤ 0.12
isolate (source animal id): 262	≤ 0.12
isolate (source animal id): 264	≤ 0.12
isolate (source animal id): 265	8 (≈ 23.9 µM)
isolate (source animal id): 266	≤ 0.12
isolate (source animal id): 267	≤ 0.12
isolate (source animal id): 269	≤ 0.12
isolate (source animal id): 271	≤ 0.12
isolate (source animal id): 272	8 (≈ 23.9 µM)
isolate (source animal id): 274	≤ 0.12
isolate (source animal id): 276	≤ 0.12
isolate (source animal id): 278	≤ 0.12
isolate (source animal id): 280	0.5 (≈ 1.5 µM)
isolate (source animal id): 281	≤ 0.12
isolate (source animal id): 283	0.25 (≈ 0.748 µM)
isolate (source animal id): 288	≤ 0.12
isolate (source animal id): 291	≤ 0.12
isolate (source animal id): 292	≤ 0.12
isolate (source animal id): 296	≤ 0.12
isolate (source animal id): 306	≤ 0.12
isolate (source animal id): 336	≤ 0.12
isolate (source animal id): 337	≤ 0.12
isolate (source animal id): 341	≤ 0.12

CC1(C)S[C@@H]2[C@H](NC(=O)[C@H](N)c3ccccc3)C(=O)N2[C@H]1C(=O)O [Ampicillin]
Conditions	minimum inhibitory concentration [µg/mL]
isolate (source animal id): 3	≤ 0.25
isolate (source animal id): 4	0.5 (≈ 1.43 µM)
isolate (source animal id): 7	≤ 0.25
isolate (source animal id): 14	≤ 0.25
isolate (source animal id): 15	≤ 0.25
isolate (source animal id): 17	≤ 0.25
isolate (source animal id): 18	≤ 0.25
isolate (source animal id): 20	≤ 0.25
isolate (source animal id): 23	≤ 0.25
isolate (source animal id): 45	≤ 0.25
isolate (source animal id): 53	≤ 0.25
isolate (source animal id): 83	≤ 0.25
isolate (source animal id): 88	≤ 0.25
isolate (source animal id): 92	≤ 0.25
isolate (source animal id): 93	≤ 0.25
isolate (source animal id): 99	≤ 0.25
isolate (source animal id): 100	≤ 0.25
isolate (source animal id): 105	≤ 0.25
isolate (source animal id): 107	≤ 0.25
isolate (source animal id): 108	≤ 0.25
isolate (source animal id): 109	≤ 0.25
isolate (source animal id): 110	≤ 0.25
isolate (source animal id): 117	≤ 0.25
isolate (source animal id): 121	≤ 0.25
isolate (source animal id): 123	≤ 0.25
isolate (source animal id): 124	≤ 0.25
isolate (source animal id): 127	≤ 0.25
isolate (source animal id): 128	≤ 0.25
isolate (source animal id): 130	> 16
isolate (source animal id): 132	≤ 0.25
isolate (source animal id): 135	≤ 0.25
isolate (source animal id): 140	≤ 0.25
isolate (source animal id): 141	≤ 0.25
isolate (source animal id): 142	≤ 0.25
isolate (source animal id): 144	≤ 0.25
isolate (source animal id): 146	≤ 0.25
isolate (source animal id): 147	≤ 0.25
isolate (source animal id): 151	≤ 0.25
isolate (source animal id): 153	≤ 0.25
isolate (source animal id): 154	≤ 0.25
isolate (source animal id): 156	≤ 0.25
isolate (source animal id): 157	≤ 0.25
isolate (source animal id): 176	≤ 0.25
isolate (source animal id): 183	≤ 0.25
isolate (source animal id): 186	≤ 0.25
isolate (source animal id): 196	≤ 0.25
isolate (source animal id): 198	≤ 0.25
isolate (source animal id): 200	≤ 0.25
isolate (source animal id): 206	≤ 0.25
isolate (source animal id): 208	≤ 0.25
isolate (source animal id): 210	≤ 0.25
isolate (source animal id): 212	≤ 0.25
isolate (source animal id): 215	≤ 0.25
isolate (source animal id): 216	≤ 0.25
isolate (source animal id): 218	≤ 0.25
isolate (source animal id): 219	≤ 0.25
isolate (source animal id): 224	≤ 0.25
isolate (source animal id): 228	≤ 0.25
isolate (source animal id): 230	≤ 0.25
isolate (source animal id): 233	≤ 0.25
isolate (source animal id): 238	≤ 0.25
isolate (source animal id): 239	≤ 0.25
isolate (source animal id): 241	≤ 0.25
isolate (source animal id): 242	≤ 0.25
isolate (source animal id): 243	≤ 0.25
isolate (source animal id): 245	≤ 0.25
isolate (source animal id): 246	≤ 0.25
isolate (source animal id): 247	≤ 0.25
isolate (source animal id): 248	≤ 0.25
isolate (source animal id): 250	≤ 0.25
isolate (source animal id): 251	≤ 0.25
isolate (source animal id): 252	≤ 0.25
isolate (source animal id): 254	≤ 0.25
isolate (source animal id): 258	≤ 0.25
isolate (source animal id): 259	≤ 0.25
isolate (source animal id): 262	≤ 0.25
isolate (source animal id): 264	≤ 0.25
isolate (source animal id): 265	4 (≈ 11.4 µM)
isolate (source animal id): 266	≤ 0.25
isolate (source animal id): 267	≤ 0.25
isolate (source animal id): 269	≤ 0.25
isolate (source animal id): 271	≤ 0.25
isolate (source animal id): 272	4 (≈ 11.4 µM)
isolate (source animal id): 274	≤ 0.25
isolate (source animal id): 276	≤ 0.25
isolate (source animal id): 278	≤ 0.25
isolate (source animal id): 280	1 (≈ 2.86 µM)
isolate (source animal id): 281	≤ 0.25
isolate (source animal id): 283	≤ 0.25
isolate (source animal id): 288	≤ 0.25
isolate (source animal id): 291	≤ 0.25
isolate (source animal id): 292	≤ 0.25
isolate (source animal id): 296	≤ 0.25
isolate (source animal id): 306	≤ 0.25
isolate (source animal id): 336	≤ 0.25
isolate (source animal id): 337	≤ 0.25
isolate (source animal id): 341	≤ 0.25

From the supplement of paper PMC8612539
